This is an account of results in patent publication US11278497B2, “Co-spray drying of meropenem and colistin and the uses thereof” (Purdue Research Foundation, priority 2018, dated 2022).

Series [1] has as its system A. baumannii N16870. Put plainly: Time-kill assay against A. baumannii N16870. Type of series: cell-based, Acinetobacter baumannii. The conditions noted are these: for time-kill antibacterial activity, monotherapy (summary): considerable regrowth except colistin at 48 mg/L. As to the method: (§1) Time-kill studies were conducted for meropenem, colistin and three combinations (Colistin:Meropenem_1:3, Colistin:Meropenem_1:1 and Colistin:Meropenem_3:1) against A. baumannii N16870 and P. aeruginosa 19147. All experiments were performed with an initial inoculum of ˜10^6 CFU/mL in 20 mL of Cation-Adjusted Mueller-Hinton Broth (CAMHB) in 50 mL pyrogen-free and sterile polypropylene tubes. Serial samples (50 μL) were collected at 0, 1, 2, 4, and 24 h for viable counting on nutrient agar plates and the limit of detection was 20 CFU/mL. A ProtoCOL automated colony counter (Synbiosis, Cambridge, United Kingdom) was used to quantify bacteria after 24 h of incubation at 37° C. Bacterial growth was measured after 0, 1, 2, 4 and 24 h of incubation at 37° C. A growth control without antibiotic was also tested.

In series [2] the test system is A. baumannii N16870. Put plainly: Minimum inhibitory concentration, clinical isolate A. baumannii N16870. In kind it is cell-based, Acinetobacter baumannii.
For series [3] the following is noted: cited from earlier work.
Series [4] concerns Pseudomonas aeruginosa 19147. Put plainly: Minimum inhibitory concentration, clinical isolate Pseudomonas aeruginosa 19147. In kind it is cell-based.
The test system of series [5] is P. aeruginosa 19147. Put plainly: Time-kill assay against P. aeruginosa 19147. In kind it is cell-based, Pseudomonas aeruginosa. The conditions noted are these: for time-kill antibacterial activity, monotherapy (summary): considerable regrowth; for complete bacterial killing in time-kill: monotherapy, e.g. 192 mg/L, at 24 h. As to the method: as §1
Where [6] appears, read: monotherapy 16 mg/L, up to 24 h.

In brackets after ≈: the same amount, converted by molar mass. Like-named read-outs stand apart in the source and are kept apart here.

In general, MIC refers to the least concentration at which growth counts as inhibited. As to `C[C@@H](O)[C@H]1C(=O)N2C(C(=O)O)=C(S[C@@H]3CN[C@H](C(=O)N(C)C)C3)[C@H](C)[C@H]12` [meropenem], the time-kill antibacterial effect result was “no antibacterial effect” in series [1] (setting [6]) and “marginal antibacterial activity” in series [1] (monotherapy 48 mg/L). Moreover, the regrowth in time-kill entry in series [1] (monotherapy 48 mg/L) is reported as “regrowth was observed in 4 h”. Besides, the “time-kill antibacterial activity, monotherapy (summary)” value in series [1] and in series [5] was “weak antibacterial activity” in each case. In addition, the MIC in series [2] (Acinetobacter baumannii) and in series [4] (read-out: MIC) was 16 µg/mL (≈ 41.7 µM) in each case. Also, the water solubility result in series [3] is “approximately 16.4 mg/mL”. The “complete bacterial killing in time-kill” value in series [5] is “complete killing could not be achieved”.

Turning to colistin, the regrowth in time-kill result in series [1] (monotherapy 16 mg/L) is “regrowth was evident in 4 h”. The time-kill antibacterial effect entry in series [1] (setting [6]) and in series [1] (monotherapy 48 mg/L) was “bacterial killing” each time. Further, the “time-kill antibacterial activity, monotherapy (summary)” value in series [1] and in series [5] was “weak antibacterial activity” each time. Besides, the “minimum inhibitory concentration [MIC]” value in series [2] is recorded as 0.5 mg/L. The MIC in series [4] was 0.5 µg/mL. Moreover, the “complete bacterial killing in time-kill” value in series [5] was “complete killing could not be achieved”.
